{
  "source": "patent US20160238590A1",
  "about": "“COMPOSITIONS AND METHODS RELATED TO OAT SENSITIVITY” (IMMUSANT, INC., priority 2013, published 2016)",
  "assay_type_in_all_cases": "cell-based, human",
  "key": {"PBMC": {"system": "PBMC", "assay": "IFN-γ ELISpot on PBMC of CD patients after 3-day barley challenge", "how_it_was_run": "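PBMC from HLA-DQ2.5+/DQ8+ biopsy-proven coeliac patients on gluten-free diet ≥4 weeks, collected on day 6 after starting a 3-day oral challenge (oats 100 g/day, barley 150 g/day, or wheat/barley/rye muffins 22-25 g each daily). Responses to avenin, hordein and gluten peptide libraries, some deamidated or tTG-treated, measured by IFN-γ ELISpot.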"}, "Patient 6 TCC-01": {"system": "Patient 6 TCC-01", "assay": "IFN-γ ELISpot with T cell clone", "how_it_was_run": "(§1)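 Patient PBMC were labeled with CFSE and cultured with antigen for seven days. Dividing cells were sorted singly onto feeders with IL-2, IL-4 and anti-CD3. Expanded clones were then screened by IFN-γ ELISpot against antigen on irradiated HLA-matched PBMC.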"}, "Patient 2 TCC-02": {"system": "Patient 2 TCC-02", "assay": "IFN-γ ELISpot with T cell clone", "details": "TCC Patient 2 TCC-02, peptide 25 μg/mL", "how_it_was_run": "as §1"}, "Patient 9 TCC-02": {"system": "Patient 9 TCC-02", "assay": "IFN-γ ELISpot with T cell clone", "details": "TCC Patient 9 TCC-02, peptide 50 μg/mL", "how_it_was_run": "as §1"}, "Patient 10 TCC-01": {"system": "Patient 10 TCC-01", "assay": "IFN-γ ELISpot with T cell clone", "details": "TCC Patient 10 TCC-01, peptide 50 μg/mL", "how_it_was_run": "as §1"}, "Patient 9 TCC-01": {"system": "Patient 9 TCC-01", "assay": "IFN-γ ELISpot with T cell clone", "details": "TCC Patient 9 TCC-01, peptide 50 μg/mL", "how_it_was_run": "as §1"}, "Patient 2 TCC-03": {"system": "Patient 2 TCC-03", "assay": "IFN-γ ELISpot with T cell clone", "details": "TCC Patient 2 TCC-03, peptide 25 μg/mL", "how_it_was_run": "as §1"}, "Patient 8 TCC-01": {"system": "Patient 8 TCC-01", "assay": "IFN-γ ELISpot with T cell clone", "details": "TCC Patient 8 TCC-01, peptide 25 μg/mL", "how_it_was_run": "as §1"}, "Patient 2 TCC-01": {"system": "Patient 2 TCC-01", "assay": "IFN-γ ELISpot with T cell clone", "how_it_was_run": "as §1"}, "Patient 14 TCC-01": {"system": "Patient 14 TCC-01", "assay": "IFN-γ ELISpot with T cell clone", "details": "TCC Patient 14 TCC-01, peptide 50 μg/mL", "how_it_was_run": "as §1"}, "[1]": {"details": "TCC Patient 6 TCC-01, peptide 25 μg/mL"}, "[2]": {"details": "TCC Patient 6 TCC-01, peptide 50 μg/mL"}, "[3]": {"details": "TCC Patient 2 TCC-01, peptide 25 μg/mL"}, "[4]": {"details": "TCC Patient 2 TCC-01, peptide 50 μg/mL"}},
  "note": "[ ]: non-standard residue; d: D form. pGlu = O=C1CC[C@@H](C(=O)O)N1",
  "data": [
    {"sequence": "QPQPYPEQPQPYP ([pGlu]PQPYPEQPQPYP-NH2; SMILES NC(=O)CC[C@H](NC(=O)[C@H](CCC(=O)O)NC(=O)[C@@H]1CCCN1C(=O)[C@H](Cc1ccc(O)cc1)NC(=O)[C@@H]1CCCN1C(=O)[C@H](CCC(N)=O)NC(=O)[C@@H]1CCCN1C(=O)[C@@H]1CCC(=O)N1)C(=O)N1CCC[C@H]1C(=O)N[C@@H](CCC(N)=O)C(=O)N1CCC[C@H]1C(=O)N[C@@H](Cc1ccc(O)cc1)C(=O)N1CCC[C@H]1C(N)=O)", "values": [
      {"measurement": "responses compared with DQ2.5-hor-3a responses", "setting": "PBMC; 2/3 patients, after barley challenge (FIG. 1b)", "value": "almost equivalent"},
      {"measurement": "response following barley challenge", "setting": "PBMC; 3 oats responders, titrating concentrations (FIG. 1b)", "value": "responded to all three peptides to varying degrees"},
      {"measurement": "responses compared with DQ2.5-ave-1c responses", "setting": "PBMC; third patient, after barley challenge (FIG. 1b)", "value": "equivalent"},
      {"measurement": "IFN-γ ELISpot response (SFU)", "setting": "Patient 6 TCC-01; [1]", "value": 86, "unit": "SFU"},
      {"measurement": "significant SFU as a percentage of maximal peptide SFU", "setting": "Patient 6 TCC-01; [1]", "value": "*** (***: >70%)"},
      {"measurement": "IFN-γ ELISpot response (raw SFU)", "setting": "Patient 6 TCC-01; [2]", "value": 52, "unit": "SFU"},
      {"measurement": "significant SFU as a percentage of maximal peptide SFU", "setting": "Patient 6 TCC-01; [2]", "value": "** (**: 40-70%)"},
      {"measurement": "IFN-γ ELISpot response (SFU)", "setting": "Patient 2 TCC-02", "value": 1, "unit": "SFU"},
      {"measurement": "IFN-γ ELISpot response (raw SFU)", "setting": "Patient 9 TCC-02", "value": 0, "unit": "SFU"},
      {"measurement": "IFN-γ ELISpot response (raw SFU)", "setting": "Patient 10 TCC-01", "value": 3, "unit": "SFU"},
      {"measurement": "IFN-γ ELISpot response (raw SFU)", "setting": "Patient 9 TCC-01", "value": 1, "unit": "SFU"},
      {"measurement": "IFN-γ ELISpot response (SFU)", "setting": "Patient 2 TCC-03", "value": 132, "unit": "SFU"},
      {"measurement": "significant SFU as a percentage of maximal peptide SFU", "setting": "Patient 2 TCC-03", "value": "*** (***: >70%)"},
      {"measurement": "IFN-γ ELISpot response (SFU)", "setting": "Patient 8 TCC-01", "value": 175, "unit": "SFU"},
      {"measurement": "significant SFU as a percentage of maximal peptide SFU", "setting": "Patient 8 TCC-01", "value": "*** (***: >70%)"},
      {"measurement": "IFN-γ ELISpot response (SFU)", "setting": "Patient 2 TCC-01; [3]", "value": 232, "unit": "SFU"},
      {"measurement": "significant SFU as a percentage of maximal peptide SFU", "setting": "Patient 2 TCC-01; [3]", "value": "*** (***: >70%)"},
      {"measurement": "IFN-γ ELISpot response (raw SFU)", "setting": "Patient 2 TCC-01; [4]", "value": 316, "unit": "SFU"},
      {"measurement": "significant SFU as a percentage of maximal peptide SFU", "setting": "Patient 2 TCC-01; [4]", "value": "*** (***: >70%)"},
      {"measurement": "IFN-γ ELISpot response (raw SFU)", "setting": "Patient 14 TCC-01", "value": 27, "unit": "SFU"},
      {"measurement": "significant SFU as a percentage of maximal peptide SFU", "setting": "Patient 14 TCC-01", "value": "* (*: 20-40%)"}
    ]}
  ]
}
